# Measurements reported in patent US10344335B2, “Mutant calreticulin for the diagnosis of myeloid malignancies” (CEMM—FORSCHUNGSZENTRUM FUER MOLEKULARE MEDIZIN GMBH, priority 2013, dated 2019).
# Tested on: Ba/F3 cells expressing empty vector (GFP), CALR wild type or CALR del52
# Test: Sensitivity of Ba/F3 cells to the inhibitor SAR302503 (CellTiter-Glo cell viability)
# Type: cell-based, murine
# Conditions: Ba/F3 cells expressing CALR wild type vs CALR del52; 48 hours; 10 ng/ml interleukin-3; dilution series, highest concentration 40 μM; listed as JAK2 kinase inhibitor
# Method: Ba/F3 cells expressing the empty vector (GFP), CALR wild type (CALR wt-GFP) or CALR mutant (CALR del52-GFP) were analyzed by defining cell viability after 48 hours in presence of decreasing SAR302503. For relative viability, relative luminescence units were normalized to the DMSO control. Error bars represent standard error of the mean.
# To define the sensitivity to the inhibitor SAR302503 (Sanofi), Ba/F3 cells were plated in 96-well plates at 25000 cells per well in triplicates on a dilution series of SAR302503 (highest concentration 40 μM) and in presence of 10 ng/ml interleukin-3. After 48 hours cell viability was determined by the CellTiter-Glo® Luminescent Cell Viability Assay (Promega).
structure (smiles),measurement,value
Cc1cnc(Nc2ccc(OCCN3CCCC3)cc2)nc1Nc1cccc(S(=O)(=O)NC(C)(C)C)c1 [SAR302503],sensitivity of cells to SAR302503 (cell viability),suppressed equally
